Test results: patent EP0405506A1, “Tetrapeptide type-B CCK receptor ligands” (ABBOTT LABORATORIES, priority 1989, dated 1991)

How the values were obtained:
cortical CCK receptor = target: T1, cortical CCK receptor (Cavia porcellus, UniProt H0VZC5); assay: Radioligand binding ([125I]Bolton-Hunter CCK8) in guinea pig cerebral cortical membranes; conditions: displacement of [125I]BH-CCK8, cortical membranes, 30°C for 150 min, Hill analysis; read-out: IC₅₀ (nM) cortex
T1 construct: Cortical and pancreatic membranes were prepared as described; from tissue; host or cells: guinea pig cerebral cortex membranes
T1 sequence (H0VZC5 1-426): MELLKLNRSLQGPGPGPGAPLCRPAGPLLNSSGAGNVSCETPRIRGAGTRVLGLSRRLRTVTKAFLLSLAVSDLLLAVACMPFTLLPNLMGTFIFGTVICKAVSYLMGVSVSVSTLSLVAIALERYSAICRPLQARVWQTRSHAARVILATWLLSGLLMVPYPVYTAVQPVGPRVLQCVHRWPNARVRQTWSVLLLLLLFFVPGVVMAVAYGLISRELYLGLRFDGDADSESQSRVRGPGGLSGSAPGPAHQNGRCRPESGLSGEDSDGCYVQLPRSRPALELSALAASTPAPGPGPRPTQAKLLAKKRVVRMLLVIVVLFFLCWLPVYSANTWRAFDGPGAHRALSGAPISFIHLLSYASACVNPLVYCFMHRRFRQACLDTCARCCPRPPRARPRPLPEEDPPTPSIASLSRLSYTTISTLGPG
Description: Protocol for Radioligand Binding Experiments in Guinea Pig Cerebral Cortical and Pancreatic Membrance Preparations
CCK8 (Asp-Tyr(SO₃H)-Met-Gly-Trp-Met-Asp-Phe-NH₂), bestatin and phosphormaidon were purchased from Peptide International (Louisville, KY). EGTA, HEPES, BSA were purchased from Sigma Chemical Co. (St. Louis, MO). [¹²⁵I]-Bolton-Hunter CCK8 (BH-CCK8) (specific activity, 2200 Ci, mmol) was obtained from New England Nuclear (Boston, MA). Male ginea pigs, 250 to 325 g, were obtained from Scientific Small Animal Laboratory and Farm (Arlington Heights, IL). Collangenase, code CLSPA was purchased from Worthington (Frehold, NJ).
Cortical and pancreatic membranes were prepared as described (Lin and Miller; J. Pharmacol. Exp. Ther. 232, 775-780, 1985). In brief, pancreas and cortex were removed and rinsed with ice-cold saline. Visible fat and connective tissues were removed from the pancreas. Tissues were weighed and homogenized in approximately 25 mL of ice-cold 50 mM Tris-HCl buffer, pH 7.4 at 4°C with a Brinkman Polytron for 30 sec, setting 7. The homogenates were centrifuged for 10 min at 1075 x g and the pellet was discarded. The supernantants were saved and centrifuged at 38,730 x g for 20 min. The resultant pellets were rehomogenized in 25 mL of 50 mM Tris-HCl buffer with a Teflon-glass homogenizer, 5 up and down strokes. The homogenates were centrifuged again at 38,730 x g for 20 min. The pellets were then resuspended in 20 mM HEPES, containing 1 mM EGTA, 118 mM NaCl, 4.7 mM KCl, 5mM MgCl₂, 100 uM bestatin, 3 uM phosphoramidon, pH 7.4 at 22°C with a Teflon-glass homogenizer, 15 up and down strokes. The resuspension volume used for the cortex was 15 mL per g of original wet weight and 60 mL per g for pancreas.
[¹²⁵I]Bolton-Hunter CCK8 and test compounds were diluted with HEPES-EGTA-salt buffer (see above) containing 0.5% bovine serum albumin (BSA). To 1 mL Skatron polystyrene tubes were added 25 uL of test compounds, 25 uL of [¹²⁵I]BH-CCK8 and 200 uL of membrane suspension. The final BSA concentration was 0.1%. The cortical tissues were incubated at 30°C for 150 min. and pancreatic tissues were incubated at 37°C for 150 min. Incubations were terminated by filtration using Skatron Cell Harvester and SS32 microfiber filter mats. The specific binding of [¹²⁵I]BH-CCK8, defined as the difference betwen binding in the absence and presence of 1 uM CCK8, was 85-90% of total binding in cortex and 90-95% in pancreas. IC₅₀s were determined from the Hill analysis.

CCK receptors = target: T2, CCK receptors (Cavia porcellus, UniProt Q63931); assay: Radioligand binding ([125I]Bolton-Hunter CCK8) in guinea pig pancreatic membranes; conditions: displacement of [125I]BH-CCK8, pancreatic membranes, 37°C for 150 min, Hill analysis; read-out: IC₅₀ (uM) pancreas
T2 construct: Cortical and pancreatic membranes were prepared as described; from tissue; host or cells: guinea pig pancreas membranes
T2 sequence (Q63931 1-430): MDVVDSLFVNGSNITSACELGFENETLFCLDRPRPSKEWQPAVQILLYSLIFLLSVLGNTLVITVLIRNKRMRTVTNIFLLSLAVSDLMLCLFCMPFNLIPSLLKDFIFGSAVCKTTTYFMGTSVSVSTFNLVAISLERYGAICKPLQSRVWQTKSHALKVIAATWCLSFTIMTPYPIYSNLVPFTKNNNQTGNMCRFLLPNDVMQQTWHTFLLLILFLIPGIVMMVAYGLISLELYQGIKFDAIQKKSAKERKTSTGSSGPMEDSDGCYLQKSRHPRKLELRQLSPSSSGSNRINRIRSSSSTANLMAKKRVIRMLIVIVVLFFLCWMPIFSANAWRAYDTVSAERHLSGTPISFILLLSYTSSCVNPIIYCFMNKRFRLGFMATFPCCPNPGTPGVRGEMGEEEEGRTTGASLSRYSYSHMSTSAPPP
Description: EGTA, HEPES, BSA were purchased from Sigma Chemical Co. (St. Louis, MO). […] Male ginea pigs, 250 to 325 g, were obtained from Scientific Small Animal Laboratory and Farm (Arlington Heights, IL). Collangenase, code CLSPA was purchased from Worthington (Frehold, NJ).
The final BSA concentration was 0.1%. The cortical tissues were incubated at 30°C for 150 min. and pancreatic tissues were incubated at 37°C for 150 min. Incubations were terminated by filtration using Skatron Cell Harvester and SS32 microfiber filter mats. […] IC₅₀s were determined from the Hill analysis.

[1] = target: T3, CCK-B receptors on small cell lung cancer cell lines (Homo sapiens, UniProt P32239); assay: Measurement of [Ca++]i changes in NCI-H345 and H209 cell lines (indo-1 fluorescence); type: cell-based; conditions: read-out: Intrinsic Activity Relative to CCK-8
T3 construct: endogenous in cells; host or cells: NCI-H345 and H209 small cell lung cancer cells
T3 sequence (P32239 1-447): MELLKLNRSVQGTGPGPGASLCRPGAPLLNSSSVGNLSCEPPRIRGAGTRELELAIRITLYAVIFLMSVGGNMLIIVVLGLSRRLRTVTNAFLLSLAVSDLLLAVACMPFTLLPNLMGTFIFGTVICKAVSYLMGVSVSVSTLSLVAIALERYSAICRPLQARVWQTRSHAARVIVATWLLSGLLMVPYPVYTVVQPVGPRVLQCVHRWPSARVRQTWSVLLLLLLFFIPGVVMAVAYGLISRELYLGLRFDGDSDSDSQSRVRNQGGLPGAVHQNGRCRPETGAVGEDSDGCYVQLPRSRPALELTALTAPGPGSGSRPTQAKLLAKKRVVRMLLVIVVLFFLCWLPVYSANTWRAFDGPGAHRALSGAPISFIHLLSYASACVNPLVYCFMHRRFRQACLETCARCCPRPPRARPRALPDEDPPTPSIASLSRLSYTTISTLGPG
Description: Protocol for Measuring [Ca++]i Changes in NCI-H345 and H209 Cell Lines
Culture conditions were as described (D.G. Yoder, T.W. Moody, Peptides, 8, 103 (1987), except that the medium was modified to RPMI 1640 with 2.5% fetal bovine serum (heat inactivated), 5µg/l sodium selenite, 5 mg/l human transferrin, 5 mg/l insulin, penicillin (100 U/l) and streptomycin (100 µg/l). To measure intracellular Ca²⁺, cells were loaded with 1 µM of indo-1,AM, for 60 min at 37°C. The cells were centrifuged at 750 x g for 5 min and resuspended in 40 mL Buffer F (Dulbecco's phosphate buffered saline containing 0.1% glucose, pH 7.4). The cells were counted then twice washed by centrifugation. The final pellet was resuspended (approximately 1 x 10⁶ cells/mL) in Buffer F. The cells were thermally equilibrated in a thermostated cuvette (37°C) for 2 min prior to base-line fluorescence measurement. Fluorescence measurements were made with an SLM 8000C spectrofluorimeter equipped with magnetic microstirrer and polarizing filters. Measurements with indo-1-loaded cells were obtained at excitation wavelength of 350 nm and emission wavelength of 480 and 405 nM and the time interval for the measurements was 0.5 sec.

`CCC[C@H]1CCN(C(=O)[C@@H]2Cc3c[nH]c4cccc(c34)CC(=O)N2)[C@@H]1C(=O)N[C@@H](CC(=O)O)C(=O)N[C@@H](Cc1ccccc1)C(N)=O` [Example 48, Ctp-Tpp-Asp-Phe-NH₂] showed an IC50 (cortical CCK receptor) of 0.7 nM, an IC50 (CCK receptors) of 3.5 µM and an Emax [1] of 103%.
